From paper PMC7069095, “A cell-permeable peptide-based PROTAC against the oncoprotein CREPT proficiently inhibits pancreatic cancer” (Theranostics, 2020)
Values belong to the compound of their own block, whether it stands above or below them. Non-standard residues stand in square brackets, D forms with d. Residues, ends and D or L forms follow the SMILES beside them. No end group written: not given here. *: point of attachment. FITC = O=C1OC2(c3ccc(O)cc3Oc3cc(O)ccc32)c2ccc(NC(=S)*)cc21; Hyp = O=C(O)[C@@H]1C[C@@H](O)CN1; Cbz = O=C(OCc1ccccc1)*; Ahx = NCCCCCC(=O)O

Experiments:
Panc-1 cells = experiment: Confocal fluorescence imaging of FITC labeled peptides in cells; type: cell-based; conditions: confocal microscope, 10 μM FITC labeled peptides, Panc-1 cells
Experimental: To examine whether PRTC could permeate into pancreatic cancer cells, we synthesized fluorescein isothiocyanate (FITC) labeled PRTC, PRTC-m, PRTC-v, PRTC-r (PRTC without RRRRK) as well as TAT (a widely used cell penetrating peptide, as a positive control).
Figure 3 Identification of the permeability of PRTC in Panc-1 cells. (A) Entry of FITC- labeled peptides into Panc-1 cells tested by flow cytometry. FITC-TAT is the positive control. Measurements were performed in triplicate. (B) Quantification of cellular uptake of Panc-1 cells treated with different concentrations of FITC-PRTC. (C) Confocal microscope images of Panc-1 cells treated with 10 μM FITC labeled peptides. Scale bars, 10 μm. (D) Confocal microscope images of Panc-1 cells treated with different dosages of FITC-PRTC. Scale bars, 10 μm.

[1] = biological target: T1, endogenous CREPT protein in Panc-1 cells (Homo sapiens, UniProt Q9NQG5); experiment: Western blot of endogenous CREPT (degradation); type: cell-based; conditions: 24 h incubation with 10 μM PRTC
T1 construct: endogenous protein level of CREPT in Panc-1, AsPc-1 and MIA-PaCa-2 cells; endogenous in cells; host or cells: Panc-1, AsPc-1, MIA PaCa-2
T1 sequence (Q9NQG5 1-326): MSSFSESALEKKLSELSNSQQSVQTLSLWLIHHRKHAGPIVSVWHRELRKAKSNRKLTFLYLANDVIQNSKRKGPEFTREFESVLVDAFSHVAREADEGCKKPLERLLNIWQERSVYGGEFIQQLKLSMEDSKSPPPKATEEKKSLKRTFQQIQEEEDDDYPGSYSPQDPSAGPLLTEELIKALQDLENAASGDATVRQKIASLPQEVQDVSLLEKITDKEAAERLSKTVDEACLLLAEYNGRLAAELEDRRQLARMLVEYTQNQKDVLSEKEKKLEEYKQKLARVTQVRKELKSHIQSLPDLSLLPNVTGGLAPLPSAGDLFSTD
Experimental: (§1) For exogenous immunoprecipitation assays, HEK293T cells were plated in 60 mm dishes and then transfected with the indicated plasmids. After 24 h, cells were harvested using RIPA buffer (50 mM Tris-HCl pH 8.0, 2 mM EDTA pH 8.0, 150 mM NaCl, 1% NP-40, 0.5% sodium deoxycholate, 0.1% SDS) with mixed protease inhibitors. Cell lysates were incubated with 2 μg of the indicated antibodies and 30 μL of protein A/G-Sepharose beads at 4 °C overnight. Beads were eluted five times with lysis buffer (50 mM Tris-HCl pH 7.6, 1 mM EDTA pH 8.0, 165 mM NaCl, 0.5% NP-40), and thereafter, a western blot assay was performed to analyze the association by using the indicated antibodies. Western blot was performed as previously reported. Anti-β-actin and anti-Flag antibodies were purchased from Sigma. Anti-Myc antibody was purchased from Santa Cruz Biotechnology. Antibody against CREPT was produced in the laboratory.
To address whether PRTC could induce CREPT degradation, we examined the endogenous protein level of CREPT in Panc-1, AsPc-1 and MIA-PaCa-2 cells in the presence of different dosages of PRTC. […] Consistently, treatment with PRTC led to decreases in CREPT protein at different times (Figure 5B, S3A). […] To further visualize the degradation process, we stained the endogenous CREPT protein with an antibody against CREPT in the cells treated with FITC-labeled PRTC.
Figure 5 PRTC induces the ubiquitination and proteasome- dependent degradation of the endogenous CREPT protein. (A) Immunoblot of CREPT following 24 h incubation with different dosages of PRTC or PRTC-m in Panc-1 cells. (B) Immunoblot of CREPT exposed to 10 μM PRTC or PRTC-m for different times in Panc-1 cells. (C) Western blot analysis of CREPT following 24 h incubation with 10 μM PTRC in Panc-1 cells. MG132 is an inhibitor of proteasome activity. (D) Immunofluorescence visualization of Panc-1 cells after treatment with PRTC for 24 h. Cells were stained with anti-CREPT antibody. Scale bars, 20 μm.

Flag-CREPT = biological target: T2, Flag-CREPT (Homo sapiens, UniProt Q9NQG5); experiment: GST pull-down; type: binding; conditions: GST-tagged proteins purified from mammalian (HEK293T) cells
T2 construct: expressed in transfected cells; host or cells: HEK293T
T2 sequence (Q9NQG5 1-326): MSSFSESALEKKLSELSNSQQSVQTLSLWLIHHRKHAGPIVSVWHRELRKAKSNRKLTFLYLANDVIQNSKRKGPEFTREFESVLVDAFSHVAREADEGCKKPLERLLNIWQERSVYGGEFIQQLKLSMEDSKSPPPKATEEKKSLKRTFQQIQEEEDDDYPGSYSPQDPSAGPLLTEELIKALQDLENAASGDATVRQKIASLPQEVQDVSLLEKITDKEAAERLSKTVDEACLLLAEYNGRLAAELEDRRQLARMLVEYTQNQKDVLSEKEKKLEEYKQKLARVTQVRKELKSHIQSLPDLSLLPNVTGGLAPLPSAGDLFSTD
Experimental: HEK293T cells were plated in 100 mm dishes and then transfected with the indicated plasmids. After 24 h, cells were harvested using RIPA buffer with mixed protease inhibitors. Cell lysates were incubated with 30 μL of GST-tagged Sepharose beads and 10 μg of purified proteins from either E. coli or HEK293T cells at 4 °C overnight. Beads were eluted five times with lysis buffer. Western blot was performed using an antibody against GST (Cell Signaling Technology) to analyze the association.

Myc-CREPT and Myc-CCT = experiment: Exogenous IP experiment in HEK293T cells; type: binding; conditions: GST-tagged CREPT ligand
Experimental: as §1

localization of FITC labeled peptides in the cells (Panc-1 cells): very weak localization
Compound: CC[C@H](C)[C@H](NC(=O)CCCCCNC(=S)Nc1ccc2c(c1)C(=O)OC21c2ccc(O)cc2Oc2cc(O)ccc21)C(=O)N[C@@H](Cc1ccc(O)cc1)C(=O)N1C[C@H](O)C[C@H]1C(=O)N[C@@H](C)C(=O)N[C@@H](CC(C)C)C(=O)NCCCCCC(=O)N[C@@H](CCCCN)C(=O)N[C@@H](CC(=O)O)C(=O)N[C@H](C(=O)N[C@@H](CC(C)C)C(=O)N[C@@H](CO)C(=O)N[C@@H](CCC(=O)O)C(=O)N[C@@H](CCCCN)C(=O)N[C@@H](CCC(=O)O)C(=O)N[C@@H](CCCCN)C(=O)N[C@@H](CCCCN)C(=O)N[C@@H](CC(C)C)C(=O)N[C@@H](CCC(=O)O)C(=O)N[C@@H](CCC(=O)O)C(=O)N[C@@H](Cc1ccc(O)cc1)C(=O)N[C@@H](CCCCN)C(=O)N[C@@H](CCC(N)=O)C(=O)N[C@@H](CCCCN)C(=O)N[C@@H](CC(C)C)C(=O)N[C@@H](C)C(=O)N[C@@H](CCCNC(=N)N)C(=O)N[C@H](C(=O)O)C(C)C)C(C)C [FITC-PRTC-r] ({FITC-Ahx}-IY[Hyp]AL[Ahx]KDVLSEKEKKLEEYKQKLARV-OH)

localization of FITC labeled peptides in the cells (Panc-1 cells): strong localization
Compound: FITC-AHX-KDVLSEKEKKLEEYKQKLARV-RRRRK [FITC-PRTC-v, FITC labeled PRTC-v]

pull down of Flag-CREPT in vitro (Flag-CREPT): lost the ability to associate
Compound: GST-CL-m: GST protein tagged with CL-m (KDVPSEKEKKPEEYKQKPARV; also: GST tag, end not given here)
binding in exogenous IP (Myc-CREPT and Myc-CCT): failed to bind

More lines, now with the values behind:

Compound: CC(C)C[C@@H](C=O)NC(=O)[C@H](CC(C)C)NC(=O)[C@H](CC(C)C)NC(=O)OCc1ccccc1 [MG132, reference compound] (Cbz-Leu-Leu-Leu-aldehyde)
effect on PRTC-induced CREPT degradation [1]: completely abolished

Compound: FITC-AHX-IYP (OH) AL-AHX-KDVPSEKEKKPEEYKQKPARV-RRRRK [FITC-PRTC-m, FITC labeled PRTC-m]
localization of FITC labeled peptides in the cells (Panc-1 cells): strong localization
